Patent publication US12059420B2 (BRISTOL-MYERS SQUIBB COMPANY, priority 2018, dated 2024)
Counter-ions that a name gives are not always drawn.

molecular target: T1, human IDO1 (Homo sapiens, UniProt P14902); assay: IDO inhibition assay in HEK293 cells stably expressing human IDO1 (kynurenine production, Ehrlich reagent, absorbance 490 nm); type: cell-based; settings: 20 hours incubation with compound, 500 nM reference standard = 100% inhibition, read-out: IDO1 HEK Human IC50
T1 construct: expressed in transfected cells
T1 sequence (P14902 whole entry): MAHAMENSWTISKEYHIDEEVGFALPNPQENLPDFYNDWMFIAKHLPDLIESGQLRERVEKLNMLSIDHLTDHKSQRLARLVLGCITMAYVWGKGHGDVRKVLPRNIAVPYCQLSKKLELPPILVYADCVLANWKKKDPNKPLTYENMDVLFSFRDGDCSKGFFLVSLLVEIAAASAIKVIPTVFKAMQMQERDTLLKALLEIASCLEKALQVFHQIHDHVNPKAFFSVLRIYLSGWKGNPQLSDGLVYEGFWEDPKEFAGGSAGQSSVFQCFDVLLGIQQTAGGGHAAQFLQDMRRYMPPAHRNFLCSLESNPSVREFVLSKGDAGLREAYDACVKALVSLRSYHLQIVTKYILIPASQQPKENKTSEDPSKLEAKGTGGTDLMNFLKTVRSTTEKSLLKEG
In short: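 Kynurenine output of stably IDO1-transfected HEK293 cells was measured by absorbance at 490 nm after mixing supernatant with 0.2% Ehrlich reagent, following TCA stop (0.2% final, 50° C., 30 min). Cells were incubated 20 hours with compound. Inhibition was scaled between DMSO and 500 nM reference standard.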

Compound	IC50
CCCN(Cc1ccccc1)c1cc(NC(=O)Cc2ccc(C)cc2)cc(-c2ccccc2C(=O)NS(=O)(=O)N2CCN(C)CC2)n1 [Example 25, 2-(6-(benzyl(propyl)amino)-4-(2-(p-tolyl)acetamido)pyridin-2-yl)-N-((4-methylpiperazin-1-yl)sulfonyl)benzamide]	2910 nM
CCCN(CC1CC1)c1cc(NC(=O)Cc2ccc(F)cc2)cc(-c2ccccc2-c2nnn[nH]2)n1 [Example 73, N-(2-(2-(1H-tetrazol-5-yl)phenyl)-6-((cyclopropylmethyl)(propyl)amino)pyridin-4-yl)-2-(4-fluorophenyl)acetamide, TFA]	334 nM
Cc1cc(Nc2cc(-c3ccccc3-c3nnn[nH]3)nc(N(Cc3ccccc3)CC(C)C)c2)ccc1C#N [Example 176, 4-((2-(2-(1H-tetrazol-5-yl)phenyl)-6-(benzyl(isobutyl)amino)pyridin-4-yl)amino)-2-methylbenzonitrile]	10.5 nM
CCCN(c1cc(NC(=O)Nc2ccc(C)cc2)cc(-c2cc(F)ccc2C(=O)O)n1)C1CCCCC1 [Example 256]	980 nM
CCCN(Cc1ccccc1)c1cc(NC(=O)Cc2ccc(C)cc2)cc(-c2ccccc2C(N)=O)n1 [Example 29]	616 nM
CCC(CC(=O)O)c1cc(Nc2ccc(Cl)cc2)cc(N(Cc2ccc(F)cc2)C(C)C)n1 (racemic) [Example 246, 3-(4-((4-chlorophenyl)amino)-6-((4-fluorobenzyl)(isopropyl)amino)pyridin-2-yl)pentanoic acid]	4.7 nM
CCCN(Cc1ccccc1)c1cc(NC(=O)N(C)c2ccc(C(F)(F)F)cc2)cc(-c2ccccc2-c2nnn[nH]2)n1 [Example 298]	38.9 nM
CC(C)CN(Cc1ccccc1)c1cc(Nc2ncccc2F)cc(-c2ccccc2-c2nnn[nH]2)n1 [Example 178, 6-(2-(1H-tetrazol-5-yl)phenyl)-N2-benzyl-N4-(3-fluoropyridin-2-yl)-N2-isobutylpyridine-2,4-diamine]	58.4 nM
CCCN(Cc1ccccc1)c1cc(NC(=O)Nc2ccc(C)cc2)cc(-c2ccccc2C(N)=O)n1 [Example 38, 2-(6-(benzyl (propyl)amino)-4-(3-(p-tolyl)ureido)pyridin-2-yl) benzamide]	302 nM
CCCN(Cc1ccccc1)c1cc(NC(=O)Cc2ccc(C)cc2)cc(-c2ccccc2-c2nnn[nH]2)n1 [Example 291]	127 nM
CCCN(Cc1ccccc1)c1cc(NC(=O)Cc2ccccc2F)cc(-c2ccccc2-c2nn[nH]n2)n1 [Example 202, N-(2-(2-(2H-tetrazol-5-yl)phenyl)-6-(benzyl(propyl)amino)pyridin-4-yl)-2-(2-fluorophenyl)acetamide]	202 nM
CC(C)CN(Cc1ccccc1)c1cc(Nc2ccn3nccc3n2)cc(-c2ccccc2-c2nnn[nH]2)n1 [Example 50, 6-(2-(1H-tetrazol-5-y1)phenyl)-N2-benzyl-N2-isobutyl-N4-(pyrazolo[1,5-a]pyrimidin-5-yl)pyridine-2,4-diamine]	131 nM
CCCN(Cc1ccccc1)c1cc(NC(=O)Nc2ccc(C)cc2)cc(-c2ccccc2S(=O)(=O)NC(=O)c2ccccc2)n1 [Example 32, N-((2-(6-(benzyl (propyl)amino)-4-(3-(p-tolyl)ureido)pyridin-2-yl)phenyl)sulfonyl) benzamide]	4100 nM
CCCN(c1cc(NC(=O)Nc2ccc(C)cc2)cc(-c2ccccc2-c2nnn[nH]2)n1)C1CCCCC1 [Example 258, 1-(2-(2-(1H-tetrazol-5-yl)phenyl)-6-(cyclohexyl(propyl)amino)pyridin-4-yl)-3-(p-tolyl)urea]	411 nM
CCCN(Cc1ccccc1)c1cc(NC(=O)Cc2ccc(C#N)cc2)cc(-c2ccccc2-c2nn[nH]n2)n1 [Example 227, N-(2-(2-(2H-tetrazol-5-yl)phenyl)-6-(benzyl(propyl)amino)pyridin-4-yl)-2-(4-cyanophenyl)acetamide]	3350 nM
CCCN(Cc1ccccc1)c1cc(NC(=O)Cc2cccc(Br)c2)cc(-c2ccccc2-c2nn[nH]n2)n1 [Example 217, N-(2-(2-(2H-tetrazol-5-yl)phenyl)-6-(benzyl(propyl)amino)pyridin-4-yl)-2-(3-bromophenyl)acetamide]	239 nM
CC(C)CN(Cc1ccccc1)c1cc(Nc2ccc(F)cc2F)cc(-c2ccccc2-c2nnn[nH]2)n1 [Example 56, 6-(2-(1H-tetrazol-5-yl)phenyl)-N2-benzyl-N4-(2,4-difluorophenyl)-N2-isobutylpyridine-2,4-diamine]	8.6 nM
Cc1cnc(Nc2cc(-c3ccccc3-c3nnn[nH]3)nc(N(Cc3ccccc3)CC(C)C)c2)cn1 [Example 49, 6-(2-(1H-tetrazol-5-yl)phenyl)-N2-benzyl-N2-isobutyl-N4-(5-methylpyrazin-2-yl)pyridine-2,4-diamine, TFA]	31.6 nM

Compound	IC50
Cc1ccc(CC(=O)Nc2cc(-c3ccccc3-c3nnn[nH]3)nc(N3CCCC(C)(C)C3)c2)cc1 [Example 135, N-(2-(2-(1H-tetrazol-5-yl)phenyl)-6-(3,3-dimethylpiperidin-1-yl)pyridin-4-yl)-2-(p-tolyl)acetamide]	1240 nM
CC(C)CN(Cc1ccccc1)c1cc(Nc2ccc(Cl)cc2)cc(-c2ccccc2-c2nnn[nH]2)n1 [Example 171, 6-(2-(1H-tetrazol-5-yl)phenyl)-N2-benzyl-N4-(4-chlorophenyl)-N2-isobutylpyridine-2,4-diamine]	1.1 nM
Cc1ccc(NC(=O)Nc2cc(-c3ccccc3C(=O)O)nc(N(CC(C)C)CC(C)C)c2)cc1 [Example 254, 2-(6-(diisobutylamino)-4-(3-(p-tolyl)ureido)pyridin-2-yl)benzoic acid]	1080 nM
CCCN(Cc1ccccc1)c1cc(NC(=O)Cc2c[nH]cn2)cc(-c2ccccc2-c2nn[nH]n2)n1 [Example 207, N-(2-(2-(2H-tetrazol-5-yl)phenyl)-6-(benzyl(propyl)amino)pyridin-4-yl)-2-(1H-imidazol-4-yl)acetamide]	3430 nM
CC(C)CN(Cc1ccccc1)c1cc(NC(=O)Cc2ccc(F)c(F)c2)cc(-c2ccccc2-c2nnn[nH]2)n1 [Example 228, N-(2-(2-(1H-tetrazol-5-yl)phenyl)-6-(benzyl(isobutyl)amino)pyridin-4-yl)-2-(3,4-difluorophenyl)acetamide]	669 nM
Cc1ccc(CC(=O)Nc2cc(-c3ccccc3-c3nnn[nH]3)nc(N(Cc3ccccc3)CC(C)C)n2)c(F)c1 [Example 11, N-(6-(2-(1H-tetrazol-5-yl)phenyl)-2-(benzyl(isobutyl)amino)pyrimidin-4-yl)-2-(2-fluoro-4-methylphenyl)acetamide]	18.1 nM
Cc1ccc(NC(=O)Nc2cc(-c3ccccc3-c3nnn[nH]3)nc(N3C[C@@H]4C[C@H]3CN4Cc3ccccc3)n2)cc1 [Example 98, 1-(6-(2-(1H-tetrazol-5-yl)phenyl)-2-((1 S,4S)-5-benzyl-2,5-diazabicyclo [2.2.1]heptan-2-yl)pyrimidin-4-yl)-3-(p-tolyl)urea]	846 nM
CCC(CC(=O)O)c1cc(NC(=O)Nc2ccc(C)cc2)cc(N(Cc2ccccc2)CC(C)C)n1 (single isomer, unassigned) [Example 244, 3-(6-(benzyl(isobutyl)amino)-4-(3-(p-tolyl)ureido)pyridin-2-yl)pentanoic acid]	109 nM
CC(C)CN(Cc1ccccc1)c1cc(Nc2cccnc2F)cc(-c2ccccc2-c2nnn[nH]2)n1 [Example 160, 6-(2-(1H-tetrazol-5-yl)phenyl)-N2-benzyl-N4-(2-fluoropyridin-3-yl)-N2-isobutylpyridine-2,4-diamine]	23.4 nM
CC(C)CN(Cc1ccccc1)c1cc(Nc2ccc(F)c(Cl)c2)cc(-c2ccccc2-c2nnn[nH]2)n1 [Example 169, 6-(2-(1H-tetrazol-5-yl)phenyl)-N2-benzyl-N4-(3-chloro-4-fluorophenyl)-N2-isobutylpyridine-2,4-diamine]	11.1 nM
Cc1ccc(CC(=O)Nc2cc(-c3ccccc3-c3nnn[nH]3)nc(N3CCCC(C)C3)c2)cc1 (stereo not drawn) [Example 126, N-(2-(2-(1H-tetrazol-5-yl)phenyl)-6-(3-methylpiperidin-1-yl)pyridin-4-yl)-2-(p-tolyl)acetamide]	2000 nM
Cc1cncc(Nc2cc(-c3ccccc3-c3nnn[nH]3)nc(N(Cc3ccccc3)CC(C)C)c2)n1 [Example 136, 6-(2-(1H-tetrazol-5-yl)phenyl)-N2-benzyl-N2-isobutyl-N4-(6-methylpyrazin-2-yl)pyridine-2,4-diamine]	78 nM
CCCN(Cc1ccccc1)c1cc(NC(=O)Cc2cnccn2)cc(-c2ccccc2-c2nn[nH]n2)n1 [Example 210, N-(2-(2-(2H-tetrazol-5-yl)phenyl)-6-(benzyl(propyl)amino)pyridin-4-yl)-2-(pyrazin-2-yl)acetamide]	1710 nM
CCN(Cc1ccccc1)c1cc(NC(=O)Nc2ccc(Cl)cc2Cl)cc(-c2ccccc2-c2nnn[nH]2)n1 [Example 281]	13.7 nM
CCCN(Cc1ccccc1)c1cc(NC(=O)Cc2ccc(C)cc2)cc(-c2ccccc2-c2nc(=O)o[nH]2)n1 [Example 28, N-(2-(benzyl (propyl)amino)-6-(2-(5-oxo-2,5-dihydro-1,2,4-oxadiazol-3-yl)phenyl)pyridin-4-yl)-2-(p-tolyl)acetamide]	80.1 nM
CCN(Cc1ccccc1)c1cc(NC(=O)Cc2ccc(C)cc2)cc(-c2ccccc2-c2nnn[nH]2)n1 [Example 1, N-(2-(2-(1H-tetrazol-5-yl)phenyl)-6-(benzyl(ethyl)amino)pyridin-4-yl)-2-(p-tolyl)acetamide]	45.4 nM
CC(C)CN(Cc1ccccc1)c1cc(Nc2ncc(C(N)=O)cc2F)cc(-c2ccccc2-c2nnn[nH]2)n1 [Example 159, 6-((2-(2-(1H-tetrazol-5-yl)phenyl)-6-(benzyl(isobutyl)amino)pyridin-4-yl)amino)-5-fluoronicotinamide]	275 nM
CCN(Cc1ccccc1)c1nc(NC(=O)Nc2ccc(C)cc2)cc(-c2ccccc2-c2nnn[nH]2)n1 [Example 4, 1-(6-(2-(1H-tetrazol-5-yl)phenyl)-2-(benzyl(ethyl)amino)pyrimidin-4-yl)-3-(p-tolyl)urea]	952 nM
